According to patent US20120289524A1, “PYRROLO [3,2-E] [1,2,4] TRIAZOLO [1,5-A] PYRIMIDINES DERIVATIVES AS INHIBITORS OF MICROGLIA ACTIVATION” (Senexis Limited, priority 2009, published 2012):
Like-named read-outs stand apart in the source and are kept apart here.

How the values were obtained:
[1] = tested on: Mouse BALB/c monocyte macrophages, J774.2; test: Inhibition of β-amyloid induced activation: TNF-alpha release (ELISA / Meso Scale Discovery); format: cell-based; conditions: J774.2 cells, 20 μM Aβ(1-42), 50 U/ml Interferon gamma, 24 hours, read-out: IC50 (μM) TNF-α release
Description: (§1) 1. Inhibition of β-amyloid Induced Activation.
(§2) Mouse BALB/c monocyte macrophages, J774.2, {ECACC 85011428} were grown and sub-cultured in cell media (DMEM containing 10% FBS, 1% L-glutamine and 1% penicillin/streptomycin). The J774 cells were plated at 100,000 cells/well in 50 μl cell media on 96 well plates and placed in a 37° C., 5% CO2 incubator overnight prior to experiments.
(§3) The addition of Aβ(1-42) and compounds to the J774 cells was performed using a Biotek precision 2000 liquid handling instrument. 3 μl of compound in DMSO ranging from 8 μM to 6 mM were pipetted into a “daughter plate” containing 294 μl of cell media and mixed thoroughly. 3 μl of Aβ(1-42) in DMSO at 4 mM was then added to the “daughter plate” and mixed thoroughly. 50 μl was then removed from the “daughter plate” and added to the plated J774 cells. The final concentrations in the wells containing 100 μl cell media were 20 μM Aβ(1-42), the compounds ranged from ˜40 nM to 30 μM in 1% DMSO and also in the presence of 50 U/ml Interferon gamma. The plates were incubated for 24 hours in a 37° C., 5% CO2 incubator. After 24 hours incubation the media from the wells were collected and stored at −20° C. until required for testing.
The TNF-alpha levels in the media were tested using a TNF-alpha ELISA (R&D Systems MTA00) or Meso Scale Discovery MS6000 Mouse Proinflammatory-7 kit, using the manufacturers instructions.

[2] = tested on: Mouse BALB/c monocyte macrophages, J774.2; test: Inhibition of β-amyloid induced activation: nitric oxide release (Griess assay); format: cell-based; conditions: J774.2 cells, 20 μM Aβ(1-42), 50 U/ml Interferon gamma, 24 hours, read-out: IC50 (μM) NO release
Description: as §1, §2, §3
The nitric oxide levels in the media were tested using the Griess assay (Promega G2930) using the manufacturer's instructions.

Pharmacokinetic data = conditions: in vivo; for bioavailability: oral
[3] = iv, read-out: T1/2 i.v. (converted)
[4] = per oral, read-out: T1/2 per oral (converted)

IC50 [1] [µM] | IC50 [2] [µM] | half-life (Pharmacokinetic data; [3]) [h] | bioavailability (Pharmacokinetic data) [%] | half-life (Pharmacokinetic data; [4]) [h] | SMILES
0.48 | 0.24 | 0.87 | 98.5 | 3.2 | Cc1nc2ncnn2c2c1CCN2[C@@H](C)c1ccc(F)cc1 [Compound 1]
> 30 |  |  |  |  | Cc1nc2ncnn2c2c1CCN2[C@H](C)c1ccccc1 [Compound 4, reference compound]
 |  | 0.22 | 34.5 | 2.4 | Cc1nc2ncnn2c2c1CCN2[C@@H](C)c1ccccc1 [reference compound]
